Reference: patent publication US20230116972A1, “CD38 MODULATORS AND METHODS OF USE THEREOF” (Cytokinetics, Inc., priority 2021, published 2023)

Tests used:
human CD38 = target: T1, human CD38 (Homo sapiens, UniProt P28907); experiment: human recombinant CD38 enzyme assay (hydrolysis of NAD+); type: biochemical; settings: human recombinant CD38, 0.4 nM enzyme, 62.5 μM NAD+; read-out: hCD38 BioChem IC50
T1 sequence (P28907 1-300): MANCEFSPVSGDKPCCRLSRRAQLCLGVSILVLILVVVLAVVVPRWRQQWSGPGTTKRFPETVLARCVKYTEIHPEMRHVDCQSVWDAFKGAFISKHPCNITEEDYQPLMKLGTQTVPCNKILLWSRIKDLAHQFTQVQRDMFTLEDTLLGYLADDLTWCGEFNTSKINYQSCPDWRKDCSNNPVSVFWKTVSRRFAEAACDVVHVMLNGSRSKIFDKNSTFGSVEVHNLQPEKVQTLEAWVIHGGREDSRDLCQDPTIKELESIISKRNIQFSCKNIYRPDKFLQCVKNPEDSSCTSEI
Protocol: (§1) Compounds described herein were assayed for their ability to inhibit the hydrolysis of NAD+ by the protein CD38. The human and mouse recombinant enzyme assays measure the inhibition of the enzyme activity by compounds using recombinant enzymes and substrates in a buffered cell-free system. The assay conditions closely mimic cellular environments. Dose responses were measured using an assay to detect the hydrolysis of NAD+. All experiments were performed in the 384-well format. […] Enzyme reactions were initiated with the addition of 10 μL of a solution containing NAD+ substrate. Subsequent detection of remaining NAD+ was determined by first converting NAD+ to NADH using alcohol dehydrogenase, then using the resulting NADH to reduce resazurine to the fluorescent product resorufin. […] Following an incubation of 60 min at ambient temperature, 10 μL of 120 mM ethanol+20 U/ml alcohol dehydrogenase+30 mM semicarbazide+0.03 mM CD38 inhibitor in 50 mM HEPES, pH 7.5, 0.2 mg/ml BSA, was added and incubated at ambient temperature for 15 min. Then 10 μl 0.32 mM NaOH was added to stop the ADH reaction (plates incubated at ambient temperature for 15 min), followed by 30 μL of 0.05 mM resazurine+1000 mU/ml Diaphorase in 200 mM Tris-HCl, pH 7.7 for 15 min at ambient temperature. The plates were read for fluorescence (Excitation/Emission=540 nm/590 nm) using an EnVision plate reader. […] Note that, in Table 4, the “Compound No” corresponds to the compound numbers in Table 1.

mouse CD38 = target: T2, mouse CD38 (Mus musculus, UniProt P56528); experiment: mouse recombinant CD38 enzyme assay (hydrolysis of NAD+); type: biochemical; settings: read-out: mCD38 BioChem IC50
T2 sequence (P56528 1-304): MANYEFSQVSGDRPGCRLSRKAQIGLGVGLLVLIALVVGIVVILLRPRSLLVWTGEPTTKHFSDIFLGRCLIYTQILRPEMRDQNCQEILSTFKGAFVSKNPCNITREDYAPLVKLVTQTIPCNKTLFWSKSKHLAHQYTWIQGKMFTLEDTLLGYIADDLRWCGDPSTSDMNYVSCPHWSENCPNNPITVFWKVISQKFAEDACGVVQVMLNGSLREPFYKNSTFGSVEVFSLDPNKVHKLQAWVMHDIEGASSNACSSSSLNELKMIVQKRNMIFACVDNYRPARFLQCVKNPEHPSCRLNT
Protocol: as §1

| IC50 (human CD38) [nM] | IC50 (mouse CD38) [nM] | Structure (SMILES) |
| --- | --- | --- |
| 1970 | 661 | CC(C)(C)c1cc(-n2ccnc2)nc(C(=O)Nc2ccc(C(F)F)nc2)n1 [Compound 188, 4-(tert-butyl)-N-(6-(difluoromethyl)pyridin-3-yl)-6-(1H-imidazol-1-yl)pyrimidine-2-carboxamide] |
| 502 | 427 | Cn1cncc1-c1cc(C(C)(C)C)nc(C(=O)Nc2ccc(C(F)(F)F)nc2)n1 [Compound 190, 4-(tert-butyl)-6-(1-methyl-1H-imidazol-5-yl)-N-(6-(trifluoromethyl)pyridin-3-yl)pyrimidine-2-carboxamide] |
| 128 | 28.2 | O=C(N[C@H]1CC[C@H](O)CC1)c1nc(C(F)F)cc(-n2ccnc2)n1 [Compound 349, 4-(difluoromethyl)-N-((1r,4r)-4-hydroxycyclohexyl)-6-(1H-imidazol-1-yl)pyrimidine-2-carboxamide] |
| 1060 | 4990 | O=C(Nc1ccc(C(F)F)nc1)c1nccc(-c2cncs2)n1 [Compound 150, N-(6-(difluoromethyl)pyridin-3-yl)-4-(thiazol-5-yl)pyrimidine-2-carboxamide] |
| 905 | 3200 | NC(=O)c1cn(-c2cccc(C(=O)Nc3ccc(C(F)(F)F)nc3)n2)cn1 [Compound 76, 6-(4-carbamoyl-1H-imidazol-1-yl)-N-(6-(trifluoromethyl)pyridin-3-yl)picolinamide] |
| 11 | 1.5 | Cn1cncc1-c1nc(C(=O)Nc2ccc(C(C)(C)O)nc2)cc(C2CCOCC2)n1 [Compound 332, N-(6-(2-hydroxypropan-2-yl)pyridin-3-yl)-2-(1-methyl-1H-imidazol-5-yl)-6-(tetrahydro-2H-pyran-4-yl)pyrimidine-4-carboxamide] |
| 312 | 66 | O=C(Nc1ccc(C(F)(F)F)nc1)c1cc(C2CC2)nc(-c2cncs2)n1 [Compound 109, 6-cyclopropyl-2-(thiazol-5-yl)-N-(6-(trifluoromethyl)pyridin-3-yl)pyrimidine-4-carboxamide] |
| 109 | 30.1 | CO[C@H]1CC[C@H](NC(=O)c2nc(C(F)F)cc(-n3ccnc3)n2)CC1 [Compound 346, 4-(difluoromethyl)-6-(1H-imidazol-1-yl)-N-((1r,4r)-4-methoxycyclohexyl)pyrimidine-2-carboxamide] |
| 2040 | 1970 | O=C(Nc1ccc(C(F)(F)F)nc1)c1cccc(-n2cnnc2)n1 [Compound 143, 6-(4H-1,2,4-triazol-4-yl)-N-(6-(trifluoromethyl)pyridin-3-yl)picolinamide] |
| 1440 | 855 | O=C(Nc1ccc(C(F)(F)F)nc1)c1cccc(-c2cncs2)n1 [Compound 50, 6-(thiazol-5-yl)-N-(6-(trifluoromethyl)pyridin-3-yl)picolinamide] |

The next lines start with the compound.

| Structure (SMILES) | IC50 (human CD38) [nM] | IC50 (mouse CD38) [nM] |
| --- | --- | --- |
| O=C(Nc1ccc(C(F)(F)F)nc1)c1cc(C(F)(F)F)nc(-c2cncs2)n1 [Compound 115, 2-(thiazol-5-yl)-6-(trifluoromethyl)-N-(6-(trifluoromethyl)pyridin-3-yl)pyrimidine-4-carboxamide] | 1260 | 494 |
| CO[C@H]1CC[C@H](NC(=O)c2nc(-c3cncn3C)cc(C(F)F)n2)CC1 [Compound 350, 4-(difluoromethyl)-N-((1r,4r)-4-methoxycyclohexyl)-6-(1-methyl-1H-imidazol-5-yl)pyrimidine-2-carboxamide] | 107 | 11.3 |
| Cn1cncc1-c1ccnc(C(=O)N[C@H]2CC[C@H](OCC(F)(F)F)CC2)n1 [Compound 343, 4-(1-methyl-1H-imidazol-5-yl)-N-((1r,4r)-4-(2,2,2-trifluoroethoxy)cyclohexyl)pyrimidine-2-carboxamide] | 24.3 | 13.6 |
| Cn1cncc1-c1nc(C(=O)N[C@H]2CC[C@H](OCC(F)(F)F)CC2)cc(C2CCOCC2)n1 [Compound 337, 2-(1-methyl-1H-imidazol-5-yl)-6-(tetrahydro-2H-pyran-4-yl)-N-((1r,4r)-4-(2,2,2-trifluoroethoxy)cyclohexyl)pyrimidine-4-carboxamide] | 10.4 | 1.9 |
| CO[C@H]1CC[C@H](NC(=O)c2cc(N3CCCC3)cc(-n3ccnc3)n2)CC1 [Compound 180, 6-(1H-imidazol-1-yl)-N-(4-methoxycyclohexyl)-4-(pyrrolidin-1-yl)picolinamide] | 78 | 8 |
| Cn1cncc1-c1ncc(F)c(C(=O)N[C@H]2CC[C@H](OC(F)F)CC2)n1 [Compound 341, N-((1r,4r)-4-(difluoromethoxy)cyclohexyl)-5-fluoro-2-(1-methyl-1H-imidazol-5-yl)pyrimidine-4-carboxamide] | 8.7 | 3.8 |
| O=C(N[C@H]1CC[C@H](O)C1)c1nccc(-n2ccnc2)n1 [Compound 304, N-((1S,3S)-3-hydroxycyclopentyl)-4-(1H-imidazol-1-yl)pyrimidine-2-carboxamide] | 1270 | 244 |
| CO[C@H]1CC[C@H](NC(=O)c2cc(C3CC3)nc(-c3cncs3)n2)CC1 [Compound 108, 6-Cyclopropyl-N-((1r,4r)-4-methoxycyclohexyl)-2-(thiazol-5-yl)pyrimidine-4-carboxamide] | 711 | 33 |
| CO[C@H]1CC[C@H](NC(=O)c2cc(O)nc(-n3ccnc3)n2)CC1 [Compound 126, 6-hydroxy-2-(1H-imidazol-1-yl)-N-((1r,4r)-4-methoxycyclohexyl)pyrimidine-4-carboxamide] | 841 | 84 |
| CO[C@H]1CC[C@H](NC(=O)c2cc(C3CCC3)nc(-c3cncn3C)n2)CC1 [Compound 181, 6-Cyclobutyl-N-((1r,4r)-4-methoxycyclohexyl)-2-(1-methyl-1H-imidazol-5-yl)pyrimidine-4-carboxamide] | 14 | 2 |
| CO[C@H]1C[C@H](NC(=O)c2nccc(-n3ccnc3)n2)C1 [Compound 313, 4-(1H-imidazol-1-yl)-N-((1r,3r)-3-methoxycyclobutyl)pyrimidine-2-carboxamide] | 761 | 198 |
| CO[C@H]1CC[C@H](NC(=O)c2nc(-c3cncn3C)ncc2C)CC1 [Compound 328, N-((1r,4r)-4-methoxycyclohexyl)-5-methyl-2-(1-methyl-1H-imidazol-5-yl)pyrimidine-4-carboxamide] | 41.4 | 11.5 |
| COCCO[C@@H]1CC[C@@H](NC(=O)c2nccc(-c3cncn3C)n2)C1 [Compound 351, N-((1R,3R)-3-(2-methoxyethoxy)cyclopentyl)-4-(1-methyl-1H-imidazol-5-yl)pyrimidine-2-carboxamide] | 676 | 267 |
| Cn1cncc1-c1ccnc(C(=O)N[C@H]2CC[C@H](OC(F)(F)F)CC2)n1 [Compound 317, 4-(1-methyl-1H-imidazol-5-yl)-N-((1r,4r)-4-(trifluoromethoxy)cyclohexyl)pyrimidine-2-carboxamide] | 79.1 | 41.7 |
| C[C@H]1CC[C@H](NC(=O)c2ccnc(-c3cncs3)n2)CC1 [Compound 112, N-((1r,4r)-4-methylcyclohexyl)-2-(thiazol-5-yl)pyrimidine-4-carboxamide] | 639 | 158 |
| Cn1cncc1-c1nc(C(=O)N[C@H]2CC[C@H](OC(F)(F)F)CC2)cc(C2CCC(F)(F)CC2)n1 [Compound 322, 6-(4,4-difluorocyclohexyl)-2-(1-methyl-1H-imidazol-5-yl)-N-((1r,4r)-4-(trifluoromethoxy)cyclohexyl)pyrimidine-4-carboxamide] | 41.8 | 6.9 |
| O=C(NC1(c2ccc(C(F)(F)F)cc2)COC1)c1cccc(-n2ccnc2)n1 [Compound 58, 6-(1H-imidazol-1-yl)-N-(3-(4-(trifluoromethyl)phenyl)oxetan-3-yl)picolinamide] | 2180 | 1040 |
| O=C(NC1CCS(=O)(=O)CC1)c1cc(C2CC2)nc(-c2cncs2)n1 [Compound 142, 6-cyclopropyl-N-(1,1-dioxidotetrahydro-2H-thiopyran-4-yl)-2-(thiazol-5-yl)pyrimidine-4-carboxamide] | 1720 | 161 |
